Earlier results as cited in patent US9226944B2, “Herbal preparation for sleep apnea relief” (priority 2008, dated 2016).

Settings: combined with the plant vs freed from the other constituents; heat accelerates decomposition

CN1C(CC(=O)c2ccccc2)CCCC1CC(O)c1ccccc1 (stereo not shown) [Lobeline, 2-[6-(2-hydroxy-2-phenyl-ethyl)-1-methyl-2-piperidyl]-1-phenyl-ethanone]
stability of lobeline: decomposes when freed from contact with the other constituents of the plant
